Reference: patent publication US4067997A, “Synergistic microbecidal composition and method” (priority 1976, dated 1978)

Key:
Streptococcus mutans = test: MIC on mass basis (Example V procedure); format: cell-based, Streptococcus mutans (ATCC 10441)
Procedure: (§1) The essential procedure of Example I was followed with a series of phenolic compounds, with the exception that the test method was conducted on a mass (μg/ml) basis rather than a molecular (mol/ml) basis of the foregoing tests, since the long established phenol-coeffecient test is on a mass rather than molecular basis. Additionally, a different but closely related group of organisms were used in this test, in order to give a complete representative span on gram-negative, gram-positive and fungus organisms. Additionally, the phenolic derivatives chosen for test purposes include a number of derivatives which are presently accepted by the FDA as food-grade phenolic microbicides.
The same procedure of Example V was repeated but with combinations of mono-laurin (GML).
The procedure of Example V was repeated with combinations of glycerol mono-laurin (GML) and ethylenediamine tetraacetic acid (EDTA) as the calcium salt and in combination with BHA.

Streptococcus pyogenes = test: MIC on mass basis (Example V procedure); format: cell-based
Procedure: as §1

Corynebacterium sp. = test: MIC on mass basis (Example V procedure); format: cell-based
Procedure: as §1

[1] = tested on: Streptococcus faecalis (Group D); test: MIC on mass basis (Example V procedure); format: cell-based
Procedure: as §1

[2] = 60 minute reading, colony forming units (Examples VIII, X, XII); format: cell-based; conditions: Table 18; base line 2.2 × 10^6CFU
Procedure: The results of this experiment are recorded in the 60 minute reading.

Question: Which MIC (Streptococcus mutans; Table 13, Streptococcus mutans) does the source give for `CCCCCCCCCCCC(=O)OCC(O)CO` (stereo not drawn) [GML, glycerol mono-laurin] here?
Answer: 31.25 µg/mL

Question: And the MIC (Streptococcus mutans; Table 14, Streptococcus mutans)?
Answer: 31.25 µg/mL

Question: What about the MIC (Streptococcus pyogenes; Table 16, Streptococcus pyogenes, no unit in table) of the same compound?
Answer: 10

Question: What about the “MIC of GML” value (Streptococcus pyogenes; Table 17, EDTA 0) of the same compound?
Answer: < 10 µg/mL

Question: What about the “MIC of GML” value (Streptococcus pyogenes; Table 17, EDTA 125) of the same compound?
Answer: < 10 µg/mL

Question: What about the “MIC of GML” value (Streptococcus pyogenes; Table 17, EDTA 250) of the same compound?
Answer: < 10 µg/mL

Question: And the “MIC of GML” value (Streptococcus pyogenes; Table 17, EDTA 500)?
Answer: < 10 µg/mL

Question: And the “MIC of GML” value (Streptococcus pyogenes; Table 17, EDTA 1,000)?
Answer: < 10 µg/mL

Question: And the “MIC of GML” value (Streptococcus pyogenes; Table 17, EDTA 5,000)?
Answer: < 10 µg/mL

Question: What about the “MIC of GML” value (Streptococcus pyogenes; Table 17, EDTA 10,000) of the same compound?
Answer: < 10 µg/mL

Question: What about the MIC (Corynebacterium sp.; Table 16, Corynebacterium sp., no unit in table) of the same compound?
Answer: 10

Question: And the “MIC of GML” value (Corynebacterium sp.; Table 17, EDTA 0)?
Answer: < 10 µg/mL

Question: And the “MIC of GML” value (Corynebacterium sp.; Table 17, EDTA 125)?
Answer: < 10 µg/mL

Question: What about the “MIC of GML” value (Corynebacterium sp.; Table 17, EDTA 250) of the same compound?
Answer: < 10 µg/mL

Question: What about the “MIC of GML” value (Corynebacterium sp.; Table 17, EDTA 500) of the same compound?
Answer: < 10 µg/mL

Question: And the “MIC of GML” value (Corynebacterium sp.; Table 17, EDTA 1,000)?
Answer: < 10 µg/mL

Question: What about the “MIC of GML” value (Corynebacterium sp.; Table 17, EDTA 5,000) of the same compound?
Answer: < 10 µg/mL

Question: What about the “MIC of GML” value (Corynebacterium sp.; Table 17, EDTA 10,000) of the same compound?
Answer: < 10 µg/mL

Question: What about the MIC ([1]; Table 16, Streptococcus faecalis (Group D), no unit in table) of the same compound?
Answer: > 1,000

Question: And the “MIC of GML” value ([1]; Table 17, EDTA 0)?
Answer: > 10,000 μg/ml

Question: What about the “MIC of GML” value ([1]; Table 17, EDTA 125) of the same compound?
Answer: > 10,000 μg/ml

Question: What about the “MIC of GML” value ([1]; Table 17, EDTA 250) of the same compound?
Answer: > 10,000 μg/ml

Question: What about the “MIC of GML” value ([1]; Table 17, EDTA 500) of the same compound?
Answer: > 10,000 μg/ml

Question: What about the “MIC of GML” value ([1]; Table 17, EDTA 1,000) of the same compound?
Answer: 1,000 μg/ml

Question: What about the “MIC of GML” value ([1]; Table 17, EDTA 5,000) of the same compound?
Answer: < 10 µg/mL

Question: What about the “MIC of GML” value ([1]; Table 17, EDTA 10,000) of the same compound?
Answer: < 10 µg/mL

Question: And the “60 Minute Reading” value [2]?
Answer: 9.7 × 10^5 CFU
